What follows are molecules tested on Myotonic Dystrophy 1 affected patient fibroblasts (Coriel GM04602; 1600 CTG repeats) (assay: DM1 foci reduction assay (EC50 assay; CAG10-Cy3 FISH, foci per nucleus)). Details: Homo sapiens, Fibroblast; DM1 patient fibroblasts, 48 h treatment, foci per nucleus; read-out: DM1 EC50, 48 h.
Assay type: cell-based
Method: DM1 Foci Reduction Assay Methods
Myotonic Dystrophy 1 affected patient fibroblasts (Coriel GM04602; 1600 CTG repeats) and wild type fibroblasts (Coriell GM07492; control line) were cultured separately in Gibco DMEM (1×)+4.5 g/L D-Glucose+L-Glutamine+[…] Sodium Pyruvate, supplemented with 10% FBS and 1× Pen/Strep. Cells were maintained in an incubator at 37° C. and 5% CO2 with media refreshed every 48-72 hours.
At 90-95% confluency, both cell lines were harvested using Trypl-E then pelleted at 500×g for 5 minutes and were resuspended in fresh media. DM1 fibroblasts were seeded in Agilent 96 well black plates at a density of 5,000 cells/well in 200 μL media; and 8 wells were reserved for control fibroblasts. Plates were returned to incubator for 24 hours at 37° C. and 5% CO2.
Compounds were diluted from 10 mM stock to 1 mM in DMSO and then diluted once more to 6 μM (2× concentration) in media. Media was removed from all plates and cells were replenished with 100 μL media. Cells were treated in 8-point dose response, 1:3 fold dilution, 3 μM top dose via addition of 100 μL of 6 μM (2× concentration) compound to the 100 μL media with cells. Plates were returned to incubator for 48 hours at 37° C. and 5% CO2.
Following treatment, compounds were removed, and plates were washed with PBS, then cells were fixed in 75 μL 4% PFA solution for 20 minutes at room temperature. Plates were washed twice with PBS and twice with cold 70% ethanol before permeabilization with 250 μL cold 70% ethanol for 24-72 hours at −20° C.
After permeabilization, plates were washed once with a 30% formamide and 2×SSC buffer and rehydrated in that buffer for 15 minutes at room temperature. Cells were incubated overnight at 37° C. in 75 μL of a hybridization solution containing 30% formamide, 2×SSC, 25 mg/mL dextran sulfate, 2.5 mg/mL BSA, 0.2 μg/mL Herring sperm DNA, 2 mM vanadyl-ribonucleoside complex, and 5 nM CAG10-Cy3 probe.
Plates were washed once with 30% formamide in 2×SSC buffer, then twice with the buffer for 30 minutes at 37° C., 300 RPM in an incubating plate shaker. Cells were stained with 75 μL of 2.5 μg/mL DAPI in PBS for 5 minutes at room temperature. Plates were then washed twice with PBS and stored in 250 μL PBS. Plates were sealed with adhesive foil and wiped down with 70% ethanol.
Cells were imaged on a Cytation5 with a 20× objective sampling from 4 areas of each well. Nuclei were captured under DAPI channel and foci under RFP channel. Plates were analyzed on an average foci per nucleus per well basis.

Compared with Cn1cc(NC(=O)c2nc(NC(=O)CCNC(=O)c3cc(NC(=O)c4nccn4C)cn3C)cn2C)cc1C(=O)NCCCC(=O)Nc1cn(C)c(C(=O)NCCC(=O)Nc2cc(C(=O)Nc3cn(C)c(C(=O)NCCCN4CCC(C#CC#CC5CCNCC5)CC4)n3)n(C)c2)n1 [Compound B-250], Cn1cc(NC(=O)c2nc(NC(=O)CCNC(=O)c3cc(NC(=O)c4nccn4C)cn3C)cn2C)cc1C(=O)NCCCC(=O)Nc1cn(C)c(C(=O)NCCC(=O)Nc2cc(C(=O)Nc3cn(C)c(C(=O)NCCCN4CCC(C#CC#CC5CCN(C(=O)OC(C)(C)C)CC5)CC4)n3)n(C)c2)n1 [Compound B-360] is lower in EC50: 100 to 500 nM for the first, < 100 nM for the second.

First: CN1CCC(NC(=O)CCNC(=O)c2nc(NC(=O)c3cc(NC(=O)CCNC(=O)c4nc(NC(=O)CCCNC(=O)c5cc(NC(=O)c6nc(NC(=O)CCNC(=O)c7cc(NC(=O)c8nccn8C)cn7C)cn6C)cn5C)cn4C)cn3C)cn2C)CC1 [Compound B-55]
Second: CN1CCC(C#CC#CCNC(=O)CCNC(=O)c2nc(NC(=O)c3cc(NC(=O)CCNC(=O)c4nc(NC(=O)CCCNC(=O)c5cc(NC(=O)c6nc(NC(=O)CCNC(=O)c7cc(NC(=O)c8nccn8C)cn7C)cn6C)cn5C)cn4C)cn3C)cn2C)CC1 [Compound B-138]
The EC50 of the first is lower: 100 to 500 nM for the first, > 1000 nM for the second.

Cn1cnc(NC(=O)c2cc(NC(=O)CCNC(=O)c3nc(NC(=O)CCCNC(=O)c4cc(NC(=O)c5nc(NC(=O)CCNC(=O)c6cc(NC(=O)c7nccn7C)cn6C)cn5C)cn4CCCCCCN=[N+]=[N-])cn3C)cn2C)c1 [Compound B-252] and CN(CCCNC(=O)OC(C)(C)C)CCCNC(=O)c1cc(NC(=O)CCNC(=O)c2nc(NC(=O)CCCNC(=O)c3cc(NC(=O)c4nc(NC(=O)CCNC(=O)c5cc(NC(=O)c6nccn6C)cn5C)cn4C)cn3CCCCCCN=[N+]=[N-])cn2C)cn1C [Compound B-357] cannot be ordered by EC50: > 1000 nM for the first, > 1000 nM for the second.

CCCNC(=O)CCNC(=O)c1nc(NC(=O)c2cc(NC(=O)CCNC(=O)c3nc(NC(=O)CCCNC(=O)c4cc(NC(=O)c5nc(NC(=O)CCNC(=O)c6cc(NC(=O)c7nccn7C)c[nH]6)cn5C)c[nH]4)cn3C)c[nH]2)cn1C [Compound B-62] and CCCNC(=O)CCNC(=O)c1nc(NC(=O)c2cc(NC(=O)CCNC(=O)c3nc(NC(=O)CCCCNC(=O)c4cc(NC(=O)c5nc(NC(=O)CCNC(=O)c6cc(NC(=O)c7nccn7C)cn6C)cn5C)cn4C)cn3C)cn2C)cn1C [Compound B-317] cannot be ordered by EC50: > 1000 nM for the first, > 1000 nM for the second.

Cn1cc(NC(=O)c2nc(NC(=O)CCNC(=O)c3cc(NC(=O)c4nccn4C)cn3C)cn2C)cc1C(=O)NCCCC(=O)Nc1cn(C)c(C(=O)NCCC(=O)Nc2cc(C(=O)NCCOCCOCCOCCN3CCC(C#CC#CC4CCN(C(=O)OC(C)(C)C)CC4)CC3)n(C)c2)n1 [Compound B-210] and CCCCCCN1CCC(C#CC#CC2CCN(CCCCCNC(=O)CCNC(=O)c3nc(NC(=O)c4cc(NC(=O)CCNC(=O)c5nc(NC(=O)CCCNC(=O)c6cc(NC(=O)c7nc(NC(=O)CCNC(=O)c8cc(NC(=O)c9nccn9C)cn8C)cn7C)cn6C)cn5C)cn4C)cn3C)CC2)CC1 [Compound B-183] cannot be ordered by EC50: > 1000 nM for the first, > 1000 nM for the second.

CCN(CC)CCCC[C@H](NC(=O)c1cccc(C(=O)OC(C)(C)C)c1)C(=O)NCCOCCOCCOCCNC(=O)c1nc(NC(=O)c2cc(NC(=O)CCNC(=O)c3nc(NC(=O)CCCNC(=O)c4cc(NC(=O)c5nc(NC(=O)CCNC(=O)c6cc(NC(=O)c7nccn7C)cn6C)cn5C)cn4C)cn3C)cn2C)cn1C [Compound B-353] and CCN(CC)CCCC[C@H](NC(=O)c1cccc(C(=O)OC(C)(C)C)c1)C(=O)NCCOCCOCCOCCNC(=O)CCNC(=O)c1nc(NC(=O)c2cc(NC(=O)CCNC(=O)c3nc(NC(=O)CCCNC(=O)c4cc(NC(=O)c5nc(NC(=O)CCNC(=O)c6cc(NC(=O)c7nccn7C)cn6C)cn5C)cn4C)cn3C)cn2C)cn1C [Compound B-355] fall in the same range of EC50: 100 to 500 nM for the first, 100 to 500 nM for the second.

First: Cn1cc(NC(=O)c2nc(NC(=O)CCNC(=O)c3cc(NC(=O)c4nccn4C)cn3C)cn2C)cc1C(=O)NCCCC(=O)Nc1cn(C)c(C(=O)NCCC(=O)Nc2cc(C(=O)Nc3cn(C)c(C(=O)NCCC(=O)NCC#N)n3)n(C)c2)n1 [Compound B-112]
Second: Cn1cc(NC(=O)c2nc(NC(=O)CCNC(=O)c3cc(NC(=O)c4nccn4C)cn3C)cn2C)cc1C(=O)NCCCC(=O)Nc1cn(C)c(C(=O)NCCC(=O)Nc2cc(C(=O)Nc3cn(C)c(C(=O)NCCCCNc4cccc(C(=O)O)c4)n3)n(C)c2)n1 [Compound B-218]
The EC50 of the first is higher: 500 to 1000 nM for the first, 100 to 500 nM for the second.

First: Cn1cc(NC(=O)c2nc(NC(=O)CCNC(=O)c3cc(NC(=O)c4nccn4C)cn3C)cn2C)cc1C(=O)NCCCC(=O)Nc1cn(C)c(C(=O)NCCC(=O)Nc2cc(C(=O)Nc3cn(C)c(C(=O)NCCC(=O)N4CCN(C5CCN(c6ccc(N)cc6)CC5)CC4)n3)n(C)c2)n1 [Compound B-156]
Second: CC(=O)N1CCN(C2CCN(C(=O)CCNC(=O)c3nc(NC(=O)c4cc(NC(=O)CCNC(=O)c5nc(NC(=O)CCCNC(=O)c6cc(NC(=O)c7nc(NC(=O)CCNC(=O)c8cc(NC(=O)c9nccn9C)cn8C)cn7C)cn6C)cn5C)cn4C)cn3C)CC2)CC1 [Compound B-130]
The EC50 of the first is higher: > 1000 nM for the first, 100 to 500 nM for the second.

Compared with CCN(CC)CCCC[C@H](NC(=O)C1CCN(C)CC1)C(=O)NCCOCCOCCOCCOCCOCCNC(=O)CCNC(=O)c1nc(NC(=O)c2cc(NC(=O)CCNC(=O)c3nc(NC(=O)CCCNC(=O)c4cc(NC(=O)c5nc(NC(=O)CCNC(=O)c6cc(NC(=O)c7nccn7C)cn6C)cn5C)cn4C)cn3C)cn2C)cn1C [Compound B-96], CCN(CC)CCCC[C@H](NC(=O)C(C)C)C(=O)NCCOCCOCCOCCOCCOCCNC(=O)CCNC(=O)c1nc(NC(=O)c2cc(NC(=O)CCNC(=O)c3nc(NC(=O)CCCNC(=O)c4cc(NC(=O)c5nc(NC(=O)CCNC(=O)c6cc(NC(=O)c7nccn7C)cn6C)cn5C)cn4C)cn3C)cn2C)cn1C [Compound B-89] is higher in EC50: 100 to 500 nM for the first, > 1000 nM for the second.

First: COCCOCCOCCOCCOCCOCCOCCOCCN(CCOCCOCCOCCOCCOCCOCCOCCOC)C(=O)CCNC(=O)c1nc(NC(=O)c2cc(NC(=O)CCNC(=O)c3nc(NC(=O)CCCNC(=O)c4cc(NC(=O)c5nc(NC(=O)CCNC(=O)c6cc(NC(C)c7nccn7C)cn6C)cn5C)cn4C)cn3C)cn2C)cn1C (stereo not shown) [Compound B-80]
Second: CCN(CC)CCCC[C@H](NC(=O)c1ccccc1)C(=O)NCCOCCOCCOCCOCCOCCNC(=O)CCNC(=O)c1nc(NC(=O)c2cc(NC(=O)CCNC(=O)c3nc(NC(=O)CCCNC(=O)c4cc(NC(=O)c5nc(NC(=O)CCNC(=O)c6cc(NC(=O)c7nccn7C)cn6C)cn5C)cn4C)cn3C)cn2C)cn1C [Compound B-91]
The EC50 of the first is higher: > 1000 nM for the first, 500 to 1000 nM for the second.

In the case of CCCNC(=O)c1cc(NC(=O)c2nc(NC(=O)CCCNC(=O)c3cc(NC(=O)c4nc(NC(=O)CCNC(=O)c5cc(NC(=O)c6nccn6C)cn5C)cn4C)cn3C)cn2C)cn1C [Compound B-67], the EC50 is reported as > 1000 nM.

Same assay, conditions: Homo sapiens, Fibroblast; DM1 patient fibroblasts, foci per nucleus, 48 h treatment; read-out: DM1 EC50, 48 h

In the case of CCCNC(=O)c1nc(NC(=O)c2cc(NC(=O)CCNC(=O)c3nc(NC(=O)CC4(CNC(=O)c5cc(NC(=O)c6nc(NC(=O)CCNC(=O)c7cc(NC(=O)c8nccn8C)cn7C)cn6C)cn5C)CC4)cn3C)cn2C)cn1C [Compound B-435, 1-methyl-4-(3-{[1-methyl-4-(1-methylimidazole-2-amido)pyrrol-2-yl]formamido}propanamido)-N-[1-methyl-5-({[1-({[1-methyl-2-({2-[(1-methyl-5-{[1-methyl-2-(propylcarbamoyl)imidazol-4-yl]carbamoyl}pyrrol-3-yl)carbamoyl]ethyl}carbamoyl)imidazol-4-yl]carbamoyl}methyl)cyclopropyl]methyl}carbamoyl)pyrrol-3-yl]imidazole-2-carboxamide], the EC50 is reported as < 100 nM.

Reference: patent US20250368628A1, “METHODS AND COMPOUNDS FOR MODULATING INHERITED GENETIC DISEASES” (Design Therapeutics, Inc., priority 2022, published 2025)
